Source: patent US5248677A, “Biogentic amine uptake inhibitors” (priority 1992, dated 1993)
pIC50: −log10 of the molar value. Counter-ions that a name gives are not always drawn.

Assays:
Type in all cases: biochemical, rat (Male Sprague-Dawley)
norepinephrine uptake = assay: NE (norepinephrine) uptake inhibition, synaptosomal preparation (hypothalamus); details: rat hypothalamus synaptosomes, 0.1 μM tritiated amine, 37° C., 4 minutes
Method: (§1) For the purpose of identifying compounds as biogenic amine uptake inhibitors capable of interacting with the uptake carrier, ligand-carrier binding assays were carried out as an initial sceen.
(§2) Male Sprague-Dawley derived rats, weighing about 180-250 g each (purchased from Sasco Animal Laboratories, Oregon, Wis.) were sacrificed by decapitation. The brains were immediately removed, placed on a chilled glass plate and dissected according to a modification of the method of Glowinski and Iversen (J. Glowinski and L. L. Iversen, J Neurochem, 1966, 13: 655-669). First, the rhombencephalon was separated by a transverse section and discarded. The rest of the brain was divided into two portions by making another transverse section at the level of the optic chiasma. The hypothalamus, which was used for norepinephrine uptake studies, was removed from the posterior part by using the anterior commissure as the horizontal reference point and a line between the posterior hypothalamus and mammillary bodies as the caudal limit. The striatum, which was used for dopamine uptake studies, was also dissected from the posterior portion using the external wall of the lateral ventricle as the internal limit and the corpus collosum as the external limit. The frontal parts of the striatum were removed from the anterior portion of the cerebrum and combined with the striatal tissue from the posterior segment. The cortex, which was used for serotonin uptake studies, was composed of the rest of the anterior portion of the cerebrum and the cortical surfaces removed from the posterior segment. The hypothalamus and the striatum each weighed about 100 mg or slightly less, whereas the cortex weighed up to 800 mg. The tissues were placed in a cold Potter-Elvehjem glass homogenizer with 5 (cortex) or 10 (hypothalamus) or 20 (striatum) volumes of ice-cold 0.32M sucrose, pH 7, and homogenized by hand. The homogenate was centrifuged (on a Multifuge®, American Scientific Products) at 2500 rpm for 10 minutes in a refrigerated room (~4° C.). The supernatant fraction containing the synaptosomes was decanted, mixed thoroughly and kept on crushed ice for use in the uptake studies.
(§3) Uptake studies were conducted according to the method of Snyder and Coyle (S. H. Snyder and J. T. Coyle, J Pharmacol Exp Ther, 1969, 165: 78-86) with minor modifications. Usually a 0.1 mL aliquot of the synaptosomal preparation was incubated in a mixture of 0.75 mL of modified Krebs-Ringerbuffer, 0.05 mL of the drug being tested, and 0.1 mL of a 1 μM solution of the labeled (tritiated) amine (final concentration 0.1 μM), for a total volume of 1 mL. The modified Krebs-Ringer bicarbonate buffer used in these studies contained 118 mM sodium chloride, 4 mM potassium chloride, 1.3 mM calcium chloride, 1.12 mM potassium dihydrogen phosphate, 1.2 mM magnesium sulfate and 24 mM sodium bicarbonate, with the addition of 5 mM glucose, 0.15 mM disodium EDTA, 12.5 μM nialamide and 1 mM ascorbic acid. Uptake was initiated by the addition of the tritiated amine and the mixture was incubated at 37° C. in a Dubnoff Metabolic Shaking Incubator for 4 minutes. A preincubation period was not included since it had been reported that results were similar with and without preincubation of the synaptosomal preparation (G. Vosmer, et al. Biochem Pharmacol, 1980, 24: 2557-2562). Control incubations without the test drug were conducted at 37° C. to determine total uptake and at 0° C. (in a crushed ice bath) to correct for the diffusion of the tritiated amine into the synaptosomes and/or binding.
(§4) Filtration was used to terminate uptake and collect the synaptosomes (C. A. Csernansky, et al. J Pharmacol Methods, 1985, 13: 187-191). In the filtration technique, the incubation mixture was diluted with ice-cold 0.9% aqueous sodium chloride solution and filtered through GF/B glass microfiber filters (Whatman) under reduced pressure. […]

dopamine uptake = assay: DA (dopamine) uptake inhibition, synaptosomal preparation (striatum); details: rat striatum synaptosomes, 0.1 μM tritiated amine, 37° C., 4 minutes
Method: as §1, §2, §3, §4

5-HT (serotonin) uptake = 5-HT (serotonin) uptake inhibition, synaptosomal preparation (cortex); details: 5-hydroxytryptamine, rat cortex synaptosomes, 0.1 μM tritiated amine, 37° C., 4 minutes
Method: as §1, §2, §3, §4

| Structure (SMILES) | pIC50 (norepinephrine uptake) | pIC50 (dopamine uptake) | pIC50 (5-HT (serotonin) uptake) | pIC50 (norepinephrine uptake; hydrochloride) | pIC50 (dopamine uptake; hydrochloride) | pIC50 (5-HT (serotonin) uptake; hydrochloride) |
| --- | --- | --- | --- | --- | --- | --- |
| COc1ccc2c(c1)CCC1C(Cc3ccccc3)NCC21 (stereo not drawn) [Example 6, trans-2,3,3a,4,5,9b-Hexahydro-7-methoxy-3-phenylmethyl-1H-benz[e]isoindole methanesulfonic acid salt] | 6.27 | 5.00 | 5.19 | – | – | – |
| Cc1cccc(CC2NCC3c4ccccc4CCC23)c1 (stereo not drawn) [Example 11, cis-2,3,3a,4,5,9b-Hexahydro-3-(3-methylphenyl)methyl-1H-benz[e]isoindole hydrochloride] | 6.62 | 5.29 | 6.08 | – | – | – |
| CCN1CC2c3ccccc3CCC2C1Cc1cccc(C)c1 (stereo not drawn) [Example 13, cis-2 -Ethyl-2,3,3a,4,5,9b-hexahydro-3-(3-methylphenyl)methyl-1H-benz[e]isoindole hydrochloride] | 7.74 | 6.83 | 6.29 | – | – | – |
| COc1ccc2c(c1)CCC1C2CN(C)C1Cc1cccc(F)c1 (stereo not drawn) [Example 28, cis-3-(3-Fluorophenyl)methyl-2,3,3a,4,5,9b-hexahydro-7-methoxy-2-methyl-1H-benz[e]isoindole hydrochloride] | – | – | – | 7.11 | 6.67 | 5.73 |
| COc1ccc2c(c1)CCC1C2CN(C)C1Cc1ccccc1 (stereo not drawn) [Example 7, trans-2,3,3a,4,5,9b-Hexahydro-7-methoxy-2-methyl-3-phenylmethyl-1H-benz[e]isoindole] | 6.49 | 4.87 | 4.91 | – | – | – |
| COc1cccc2c1CCC1C2CN(C)C1Cc1ccccc1 (stereo not drawn) [Example 22, cis-2,3,3a,4,5,9 b-Hexahydro-6-methoxy-2-methyl-3-phenylmethyl-1H-benz[e]isoindole methanesulfonic acid salt] | 7.22 | 6.43 | 5.46 | – | – | – |
| COc1ccc2c(c1)CCC1C2CN(C)C1Cc1ccccc1 (stereo not drawn) [Example 2, cis-2,3,3a,4,5,9b-Hexahydro-7-methoxy-2-methyl-3-phenylmethyl-1H-benz[e]isoindole methanesulfonic acid salt] | 7.24 | 6.74 | 5.38 | – | – | – |
| COc1cccc2c1CCC1CCC(Cc3ccccc3)N(C)CC21 (single isomer, unassigned) [Example 76B, 8-Methoxy-2-methyl-1,3,4,5,5a,6,7,11b-octahydro-3-phenylmethyl-2H-naphth[1,2-c]azepine hydrochloride] | – | – | – | 6.63 | 5.66 | 6.46 |
| CN1CC2c3ccccc3CCC2CCC1Cc1ccccc1 (single isomer, unassigned) [Example 75A, cis-2-Methyl-1,3,4,5,5a,6,7,11b-octahydro-3-phenylmethyl-2H-naphth[1,2-c]azepine hydrochloride] | – | – | – | 7.52 | 6.35 | 6.64 |
| COc1cccc2c1CCC1CCC(Cc3ccccc3)N(C)CC21 (single isomer, unassigned) [Example 76A, 8-Methoxy-2-methyl-1,3,4,5,5a,6,7,11b-octahydro-3-phenylmethyl-2H-naphth[1,2-c]azepine hydrochloride] | – | – | – | 8.46 | 6.28 | 6.41 |
| CN1CC2c3ccccc3CCC2CCC1Cc1ccccc1 (single isomer, unassigned) [Example 75B, cis-2-Methyl-1,3,4,5,5a,6,7,11b-octahydro-3-phenylmethyl-2H-naphth[1,2-c]azepine hydrochloride] | – | – | – | 6.29 | 5.55 | 5.38 |
| Fc1cccc(CC2NCC3c4ccccc4CCC23)c1 (stereo not drawn) [Example 15, cis-3-(3-Fluorophenyl)methyl-2,3,3a,4,5,9b-hexahydro-1H-benz[e]isoindole hydrochloride] | 6.46 | 5.11 | 4.82 | – | – | – |
| COc1ccc2c(c1OC)CCC1C(Cc3ccccc3)NCC21 (stereo not drawn) [Example 31, hydrochloride] | 6.23 | 5.27 | 4.85 | – | – | – |
